What all share (conditions): for ΔTm: Compound concentration 10.0 uM
Assay [1] addresses AP2-associated protein kinase 1 (Homo sapiens) (UniProt Q2M2I8). The assay can be described thus: AAK1 SGC Tm panel (DSF).
In assay [2] the target is T1, Cytoplasmic tyrosine-protein kinase BMX (Homo sapiens) (UniProt P51813).
T1 sequence (whole entry): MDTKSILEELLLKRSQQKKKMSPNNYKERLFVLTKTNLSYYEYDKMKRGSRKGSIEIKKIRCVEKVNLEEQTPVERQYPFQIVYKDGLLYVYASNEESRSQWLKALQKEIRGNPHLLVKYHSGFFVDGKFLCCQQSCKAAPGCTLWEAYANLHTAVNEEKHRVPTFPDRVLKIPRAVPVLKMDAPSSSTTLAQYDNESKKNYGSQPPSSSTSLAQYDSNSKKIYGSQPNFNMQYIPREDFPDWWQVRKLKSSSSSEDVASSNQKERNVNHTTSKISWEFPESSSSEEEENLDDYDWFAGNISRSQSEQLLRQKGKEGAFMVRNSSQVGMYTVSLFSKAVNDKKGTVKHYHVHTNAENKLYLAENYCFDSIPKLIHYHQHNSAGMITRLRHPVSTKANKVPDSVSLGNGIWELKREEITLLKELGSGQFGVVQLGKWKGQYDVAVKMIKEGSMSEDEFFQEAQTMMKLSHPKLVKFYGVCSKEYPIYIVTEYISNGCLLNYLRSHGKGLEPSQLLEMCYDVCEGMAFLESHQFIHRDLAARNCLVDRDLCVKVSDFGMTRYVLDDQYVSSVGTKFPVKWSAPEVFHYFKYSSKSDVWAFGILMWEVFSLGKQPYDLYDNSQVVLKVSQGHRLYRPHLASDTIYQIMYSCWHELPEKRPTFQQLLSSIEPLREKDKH
Kind of assay: BMX SGC Tm panel (DSF).

Assay [3] concerns the target Dual specificity protein kinase CLK1 (Homo sapiens) (UniProt P49759). The assay can be described thus: CLK1 SGC Tm panel (DSF).
For assay [4], the target named is Dual specificity protein kinase CLK3 (Homo sapiens) (UniProt P49761). Kind of assay: CLK3 SGC Tm panel (DSF).
In assay [5] the target is T2, Myotonin-protein kinase (Homo sapiens) (UniProt Q09013).
T2 sequence (whole entry): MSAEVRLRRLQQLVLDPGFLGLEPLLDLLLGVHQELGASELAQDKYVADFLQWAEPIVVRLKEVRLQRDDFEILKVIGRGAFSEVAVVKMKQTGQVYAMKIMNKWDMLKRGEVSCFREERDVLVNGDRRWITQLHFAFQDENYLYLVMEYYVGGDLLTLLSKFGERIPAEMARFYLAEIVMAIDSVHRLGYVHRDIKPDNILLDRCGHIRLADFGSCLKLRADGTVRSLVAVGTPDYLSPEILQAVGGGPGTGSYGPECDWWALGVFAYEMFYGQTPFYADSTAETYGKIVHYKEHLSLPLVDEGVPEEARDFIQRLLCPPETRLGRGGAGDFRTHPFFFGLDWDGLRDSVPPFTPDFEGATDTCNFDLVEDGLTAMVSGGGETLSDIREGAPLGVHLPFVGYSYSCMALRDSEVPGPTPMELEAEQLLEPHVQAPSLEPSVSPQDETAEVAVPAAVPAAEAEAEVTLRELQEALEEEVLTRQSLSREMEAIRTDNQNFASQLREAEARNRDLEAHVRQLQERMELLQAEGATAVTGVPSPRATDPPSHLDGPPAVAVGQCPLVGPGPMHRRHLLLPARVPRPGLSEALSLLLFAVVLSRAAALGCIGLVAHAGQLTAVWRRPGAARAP
Kind of assay: DMPK1 SGC Tm panel (DSF).

Assay [6] concerns the target T3, Serine/threonine-protein kinase Nek2 (Homo sapiens) (UniProt P51955).
T3 sequence (whole entry): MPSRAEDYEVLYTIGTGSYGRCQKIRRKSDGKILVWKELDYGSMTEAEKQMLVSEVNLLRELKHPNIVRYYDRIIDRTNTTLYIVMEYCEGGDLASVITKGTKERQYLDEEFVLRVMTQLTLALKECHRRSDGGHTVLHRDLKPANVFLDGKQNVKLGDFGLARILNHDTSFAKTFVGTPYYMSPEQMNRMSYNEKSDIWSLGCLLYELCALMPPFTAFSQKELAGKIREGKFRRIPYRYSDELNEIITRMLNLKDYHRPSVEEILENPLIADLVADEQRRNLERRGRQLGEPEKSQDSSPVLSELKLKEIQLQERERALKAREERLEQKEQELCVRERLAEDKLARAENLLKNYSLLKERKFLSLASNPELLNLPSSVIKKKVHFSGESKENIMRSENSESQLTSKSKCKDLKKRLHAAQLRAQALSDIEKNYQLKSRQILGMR
Kind of assay: NEK2 SGC Tm panel (DSF).

For assay [7], the target named is Serine/threonine-protein kinase PAK 4 (Homo sapiens) (UniProt O96013). The assay can be described thus: PAK4 SGC Tm panel (DSF).
Assay [8] deals with STE20-like serine/threonine-protein kinase (Homo sapiens) (UniProt Q9H2G2). Kind of assay: SLK SGC Tm panel (DSF).
Sequence of STE20-like serine/threonine-protein kinase (Homo sapiens) (Q9H2G2 whole entry, looked up): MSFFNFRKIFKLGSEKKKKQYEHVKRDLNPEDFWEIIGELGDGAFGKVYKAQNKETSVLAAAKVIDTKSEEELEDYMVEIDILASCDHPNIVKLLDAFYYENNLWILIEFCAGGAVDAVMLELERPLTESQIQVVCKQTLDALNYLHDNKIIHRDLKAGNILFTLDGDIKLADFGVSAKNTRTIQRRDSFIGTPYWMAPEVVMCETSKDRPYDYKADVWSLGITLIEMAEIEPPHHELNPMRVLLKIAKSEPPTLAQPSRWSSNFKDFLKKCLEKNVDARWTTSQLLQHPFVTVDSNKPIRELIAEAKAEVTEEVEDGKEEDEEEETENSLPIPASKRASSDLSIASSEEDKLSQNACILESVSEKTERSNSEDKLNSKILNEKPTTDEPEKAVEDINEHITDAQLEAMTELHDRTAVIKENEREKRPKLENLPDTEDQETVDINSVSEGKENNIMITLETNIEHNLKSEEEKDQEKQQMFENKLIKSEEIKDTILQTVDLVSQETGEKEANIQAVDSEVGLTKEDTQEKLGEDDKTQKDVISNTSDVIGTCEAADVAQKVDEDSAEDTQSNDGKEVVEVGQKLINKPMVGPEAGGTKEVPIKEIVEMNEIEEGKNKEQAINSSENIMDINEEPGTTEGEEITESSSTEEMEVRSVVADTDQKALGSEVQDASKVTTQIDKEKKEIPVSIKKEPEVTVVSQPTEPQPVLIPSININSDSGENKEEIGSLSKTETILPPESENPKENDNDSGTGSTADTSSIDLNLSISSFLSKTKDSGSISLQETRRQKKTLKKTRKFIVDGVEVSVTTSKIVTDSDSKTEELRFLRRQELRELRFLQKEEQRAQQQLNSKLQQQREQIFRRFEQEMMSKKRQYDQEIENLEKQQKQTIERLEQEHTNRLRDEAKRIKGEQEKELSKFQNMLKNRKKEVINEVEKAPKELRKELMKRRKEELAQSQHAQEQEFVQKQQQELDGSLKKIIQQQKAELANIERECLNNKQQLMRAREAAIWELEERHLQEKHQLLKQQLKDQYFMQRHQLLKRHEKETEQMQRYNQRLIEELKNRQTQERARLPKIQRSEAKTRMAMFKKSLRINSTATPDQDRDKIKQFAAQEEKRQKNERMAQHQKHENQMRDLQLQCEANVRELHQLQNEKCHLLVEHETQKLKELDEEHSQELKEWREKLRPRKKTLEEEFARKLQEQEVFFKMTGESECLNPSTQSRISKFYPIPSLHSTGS

Sequence of AP2-associated protein kinase 1 (Homo sapiens) (Q2M2I8 whole entry, looked up): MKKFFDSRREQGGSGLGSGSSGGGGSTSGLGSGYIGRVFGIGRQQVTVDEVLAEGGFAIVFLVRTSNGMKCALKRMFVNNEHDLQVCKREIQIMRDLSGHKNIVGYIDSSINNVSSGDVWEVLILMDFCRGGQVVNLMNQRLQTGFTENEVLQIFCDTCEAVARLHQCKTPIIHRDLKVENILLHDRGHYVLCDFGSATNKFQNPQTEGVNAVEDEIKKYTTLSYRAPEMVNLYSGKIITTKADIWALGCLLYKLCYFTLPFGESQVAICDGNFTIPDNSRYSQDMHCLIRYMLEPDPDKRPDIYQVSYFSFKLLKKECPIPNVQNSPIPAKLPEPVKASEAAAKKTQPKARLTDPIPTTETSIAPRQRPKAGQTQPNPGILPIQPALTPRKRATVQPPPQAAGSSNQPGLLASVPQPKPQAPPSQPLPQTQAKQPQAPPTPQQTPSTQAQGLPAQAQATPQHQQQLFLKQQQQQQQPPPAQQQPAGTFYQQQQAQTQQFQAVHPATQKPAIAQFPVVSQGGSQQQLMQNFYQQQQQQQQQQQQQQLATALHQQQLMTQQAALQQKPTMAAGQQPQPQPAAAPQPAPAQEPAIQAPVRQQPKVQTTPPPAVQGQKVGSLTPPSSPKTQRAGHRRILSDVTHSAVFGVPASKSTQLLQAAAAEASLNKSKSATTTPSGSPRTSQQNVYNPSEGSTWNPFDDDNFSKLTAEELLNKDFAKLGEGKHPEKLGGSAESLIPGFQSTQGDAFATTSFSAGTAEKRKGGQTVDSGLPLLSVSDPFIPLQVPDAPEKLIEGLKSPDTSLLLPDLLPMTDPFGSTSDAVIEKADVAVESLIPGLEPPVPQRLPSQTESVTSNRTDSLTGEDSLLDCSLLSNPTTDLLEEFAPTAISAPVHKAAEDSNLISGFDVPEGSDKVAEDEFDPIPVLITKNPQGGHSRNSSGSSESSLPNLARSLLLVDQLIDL
Sequence of Serine/threonine-protein kinase PAK 4 (Homo sapiens) (O96013 whole entry, looked up): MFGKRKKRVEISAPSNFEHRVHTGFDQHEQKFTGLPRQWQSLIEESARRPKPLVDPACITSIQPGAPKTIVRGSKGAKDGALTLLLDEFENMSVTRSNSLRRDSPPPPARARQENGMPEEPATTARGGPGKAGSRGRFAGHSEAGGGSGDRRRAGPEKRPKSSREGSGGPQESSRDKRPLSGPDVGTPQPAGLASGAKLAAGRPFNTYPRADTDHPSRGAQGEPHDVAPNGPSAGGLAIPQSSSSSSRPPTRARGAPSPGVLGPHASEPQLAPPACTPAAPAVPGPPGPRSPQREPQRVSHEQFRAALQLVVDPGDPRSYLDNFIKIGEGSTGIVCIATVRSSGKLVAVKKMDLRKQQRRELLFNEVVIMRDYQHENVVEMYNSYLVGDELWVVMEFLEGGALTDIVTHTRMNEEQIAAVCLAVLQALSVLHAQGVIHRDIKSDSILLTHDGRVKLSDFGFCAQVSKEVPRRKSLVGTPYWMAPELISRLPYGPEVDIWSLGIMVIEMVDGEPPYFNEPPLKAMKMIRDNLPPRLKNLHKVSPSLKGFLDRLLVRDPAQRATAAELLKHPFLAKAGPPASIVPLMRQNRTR
Sequence of Dual specificity protein kinase CLK3 (Homo sapiens) (P49761 whole entry, looked up): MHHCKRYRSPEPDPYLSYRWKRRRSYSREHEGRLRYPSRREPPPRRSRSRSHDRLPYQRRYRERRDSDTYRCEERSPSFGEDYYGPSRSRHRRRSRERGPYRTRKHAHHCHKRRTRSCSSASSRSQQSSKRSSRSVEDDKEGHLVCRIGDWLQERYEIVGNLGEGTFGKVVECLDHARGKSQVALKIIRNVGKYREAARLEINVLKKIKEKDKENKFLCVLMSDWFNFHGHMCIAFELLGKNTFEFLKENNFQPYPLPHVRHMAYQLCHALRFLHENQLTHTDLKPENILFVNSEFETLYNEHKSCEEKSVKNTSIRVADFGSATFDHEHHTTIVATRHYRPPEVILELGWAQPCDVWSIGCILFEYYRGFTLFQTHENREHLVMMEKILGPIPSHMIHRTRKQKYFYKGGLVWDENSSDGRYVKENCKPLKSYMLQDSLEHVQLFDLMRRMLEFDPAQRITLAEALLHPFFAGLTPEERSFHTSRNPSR
Sequence of Dual specificity protein kinase CLK1 (Homo sapiens) (P49759 whole entry, looked up): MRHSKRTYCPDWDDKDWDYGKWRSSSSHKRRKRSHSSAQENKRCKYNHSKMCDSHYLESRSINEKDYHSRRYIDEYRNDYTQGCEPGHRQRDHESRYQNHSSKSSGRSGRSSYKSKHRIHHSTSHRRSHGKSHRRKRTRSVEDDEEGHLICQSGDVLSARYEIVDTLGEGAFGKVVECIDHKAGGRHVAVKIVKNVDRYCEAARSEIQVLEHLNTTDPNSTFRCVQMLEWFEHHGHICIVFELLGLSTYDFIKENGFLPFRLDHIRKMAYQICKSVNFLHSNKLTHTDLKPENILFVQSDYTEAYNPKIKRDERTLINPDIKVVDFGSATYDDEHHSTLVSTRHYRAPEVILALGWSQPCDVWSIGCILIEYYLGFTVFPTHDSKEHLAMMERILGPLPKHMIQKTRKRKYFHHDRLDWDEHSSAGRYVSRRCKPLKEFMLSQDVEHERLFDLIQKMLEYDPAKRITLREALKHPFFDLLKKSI

Take `CCC[C@H]1CNCc2c1[nH]c(=O)c(C#N)c2N1CCC2(CC1)CC2`: the delta Tm Staurosporine positive control in assay [1] is 12.4; in assay [2] it was 7.31; in assay [3], 11.4; in assay [4] it was 5.3; in assay [5], 9.38; in assay [6] it was 4.25. In addition, the results for the delta Tm Staurosporine positive control in assay [7] and in assay [8] were 15.1 and 15.4, respectively. The ΔTm in assay [1] is -0.482; in assay [2] it was -0.224; in assay [3], -0.548; in assay [4], -0.402; in assay [5], -0.0275; in assay [6], -1.22. The results for the ΔTm in assay [7] and in assay [8] were 0.134 and -0.579, respectively.
For `CCC[C@@H]1CNCc2c1[nH]c(=O)c(C#N)c2N1CCC2(CC1)CC2`, the delta Tm Staurosporine positive control is 12.4 in assay [1]; 7.31 in assay [2]; 11.4 in assay [3]; 5.3 in assay [4]; 9.38 in assay [5]; 4.25 in assay [6]. Moreover, the delta Tm Staurosporine positive control in assay [7] was determined as 15.1; in assay [8], 15.4. The ΔTm was -0.478 in assay [1]; -0.292 in assay [2]; -0.372 in assay [3]; -0.379 in assay [4]; -0.138 in assay [5]; -1.52 in assay [6]. Also, the ΔTm is 0.121 in assay [7] and -1.06 in assay [8].

(Values after ChEMBL document CHEMBL5303765, “Data for DCP probe BAY-7081” (2023).)
